How the values were obtained:
CDK2/cyclin A [1] = biological target: T1, CDK2/cyclin A (Homo sapiens, UniProt P24941); test: CDK2/cyclin A enzyme assay; type: biochemical; settings: Tables 1 and 2
MDCK cell line = test: MDCK cell permeability assay; type: in vitro ADME; settings: 1 μM, 2 h; for Papp (A-B) (10^−6, cm/s): apical to basolateral; for Papp (B-A) (10^−6, cm/s): basolateral to apical
CDK2/cyclin A [2] = biological target: T1, CDK2/cyclin A; test: Reaction Biology 33P-ATP filter-binding kinase assay, CDK2/cyclin A; type: biochemical
CDK2 = CDK2 (Homo sapiens, UniProt P24941); test: DiscoverX kinase binding assay for Kd; settings: for better binding affinity for CDK2 compared to screening hit 3: relative to 3
MCF-7 cell line = test: Antiproliferation assay; type: cell-based; settings: 72 h, alamarBlue, highest concentration tested
CDK complexes = test: Reaction Biology single-dose kinase profiling of CDK complexes; type: biochemical; settings: all tested CDK complexes
HSP90 = test: Test against HSP90; settings: data not shown
CDK2/cyclin E = CDK2/cyclin E (Homo sapiens, UniProt P24941); test: Reaction Biology 33P-ATP filter-binding kinase assay, CDK2/cyclin E; type: biochemical

Cc1cccnc1-n1nc(C)c2c1CC(C)(C)C(Br)C2=O (stereo not shown) [Compound 40, 5-Bromo-3,6,6-trimethyl-1-(3-methylpyridin-2-yl)-6,7-dihydro-1H-indazol-4(5H)-one]
CDK2/cyclin A inhibitory activity, in words (CDK2/cyclin A [1]): low activities

COCCc1ccc(OCC(O)CNC(C)C)cc1 (stereo not shown) [Metoprolol, metoprolol, reference compound]
Papp (A-B) (10^−6, cm/s) (MDCK cell line): 26.9 10^−6, cm/s
Papp (B-A) (10^−6, cm/s) (MDCK cell line): 21.2 10^−6, cm/s

Cc1nn(-c2ccccn2)c2c1NC(=O)CC(C)(C)C2 [Compound 19, 3,7,7-Trimethyl-1-(pyridin-2-yl)-4,6,7,8-tetrahydropyrazolo[4,3-b]azepin-5(1H)-one]
CDK2/cyclin A inhibitory activity, in words (CDK2/cyclin A [1]): inactive

Cc1nn(-c2ccncn2)c2c1C(=O)CC(C)(C)C2Br (stereo not shown) [Compound 59, 7-Bromo-3,6,6-trimethyl-1-(pyrimidin-4-yl)-6,7-dihydro-1H-indazol-4(5H)-one]
IC50 (CDK2/cyclin A [2]): 0.12 µM
better binding affinity for CDK2 compared to screening hit 3 (CDK2): 3 fold
antiproliferative activities against MCF-7 cell line, none up to (MCF-7 cell line): > 200 µM

Cc1nn(-c2ccccn2)c2c1C(=O)NCC(C)(C)C2Br (stereo not shown) [Compound 21, 8-Bromo-3,7,7-trimethyl-1-(pyridin-2-yl)-5,6,7,8-tetrahydropyrazolo[4,3-c]azepin-4(1H)-one]
CDK2/cyclin A inhibitory activity, in words (CDK2/cyclin A [1]): moderately active

Cc1nn(-c2ccccn2)c2c1C(=O)CC(C)C2Br (stereo not drawn) [Compound 18b-cis, 7-Bromo-3,6-dimethyl-1-(pyridin-2-yl)-6,7-dihydro-1H-indazol-4(5H)-one]
Inhibition of CDK complexes at 1 μM, in words (CDK complexes): did not exhibit significant inhibitory activity

Cc1nn(-c2ccccn2)c2c1C(=O)CC(c1ccccc1)C2Br (stereo not shown) [Compound 18d, 7-Bromo-3-methyl-6-phenyl-1-(pyridin-2-yl)-6,7-dihydro-1H-indazol-4(5H)-one]
CDK2/cyclin A inhibitory activity, in words (CDK2/cyclin A [1]): inactive

Cc1nn(-c2ccccn2)c2c1C(=O)NCC(C)(C)C2 [Compound 20, 3,7,7-Trimethyl-1-(pyridin-2-yl)-5,6,7,8-tetrahydropyrazolo[4,3-c]azepin-4(1H)-one]
CDK2/cyclin A inhibitory activity, in words (CDK2/cyclin A [1]): inactive

Cc1nn(-c2ccccn2)c2c1C(O)CC(C)(C)C2Br (stereo not shown) [Compound 22, 7-Bromo-3,6,6-trimethyl-1-(pyridin-2-yl)-4,5,6,7-tetrahydro-1H-indazol-4-ol]
CDK2/cyclin A inhibitory activity, in words (CDK2/cyclin A [1]): weak inhibitory activity

Cc1nn(-c2ncccc2C(F)(F)F)c2c1C(=O)CC(C)(C)C2Br (stereo not shown) [Compound 46, 7-Bromo-3,6,6-trimethyl-1-(3-(trifluoromethyl)pyridin-2-yl)-6,7-dihydro-1H-indazol-4(5H)-one]
CDK2/cyclin A inhibitory activity, in words (CDK2/cyclin A [1]): low activities

Cc1nn(-c2ccccn2)c2c1C(=O)CC(C)(C)C2Br (stereo not shown) [Compound 3, 7-Bromo-3,6,6-trimethyl-1-(pyridin-2-yl)-6,7-dihydro-1H-indazol-4(5H)-one]
activity against HSP90 (HSP90): did not exhibit any activity
Papp (A-B) (10^−6, cm/s) (MDCK cell line): 20.1 10^−6, cm/s
Papp (B-A) (10^−6, cm/s) (MDCK cell line): 9.52 10^−6, cm/s
IC50 (CDK2/cyclin A [2]): 0.086 µM
Kd (CDK2): 15 µM
antiproliferative activities against MCF-7 cell line, none up to (MCF-7 cell line): > 200 µM

Cc1nn(-c2ncccc2C(F)(F)F)c2c1C(=O)C(Br)C(C)(C)C2 (stereo not shown) [Compound 47, 5-Bromo-3,6,6-trimethyl-1-(3-(trifluoromethyl)pyridin-2-yl)-6,7-dihydro-1H-indazol-4(5H)-one]
CDK2/cyclin A inhibitory activity, in words (CDK2/cyclin A [1]): low activities

Cc1nn(-c2nccs2)c2c1C(=O)CC(C)(C)C2Br (stereo not shown) [Compound 53, 7-Bromo-3,6,6-trimethyl-1-(thiazol-2-yl)-6,7-dihydro-1H-indazol-4(5H)-one]
IC50 (CDK2/cyclin A [2]): 0.0619 µM
better binding affinity for CDK2 compared to screening hit 3 (CDK2): 3 fold
antiproliferative activities against MCF-7 cell line, none up to (MCF-7 cell line): > 200 µM
IC50 (CDK2/cyclin E): 0.002 µM

Cc1nn(-c2ccccn2)c2c1/C(=N/O)CC(C)(C)C2Br (stereo not shown) [Compound 23, 7-Bromo-3,6,6-trimethyl-1-(pyridin-2-yl)-6,7-dihydro-1H-indazol-4(5H)-one Oxime]
CDK2/cyclin A inhibitory activity, in words (CDK2/cyclin A [1]): weak inhibitory activity
